Target: STAT3 (Homo sapiens, UniProt P40763)
Assay: biotin pull-down (MDA-MB-231), LC/MS identification and STAT3 Western blot
Assay type: cell-based
From the text: biotin pull-down (MDA-MB-231), LC/MS identification and STAT3 Western blot on STAT3 | identified the proteins that bind to biotin–ZSW specifically using LC/MS. We determined that STAT3 was specifically stripped

STAT3, sequence (P40763 2-770): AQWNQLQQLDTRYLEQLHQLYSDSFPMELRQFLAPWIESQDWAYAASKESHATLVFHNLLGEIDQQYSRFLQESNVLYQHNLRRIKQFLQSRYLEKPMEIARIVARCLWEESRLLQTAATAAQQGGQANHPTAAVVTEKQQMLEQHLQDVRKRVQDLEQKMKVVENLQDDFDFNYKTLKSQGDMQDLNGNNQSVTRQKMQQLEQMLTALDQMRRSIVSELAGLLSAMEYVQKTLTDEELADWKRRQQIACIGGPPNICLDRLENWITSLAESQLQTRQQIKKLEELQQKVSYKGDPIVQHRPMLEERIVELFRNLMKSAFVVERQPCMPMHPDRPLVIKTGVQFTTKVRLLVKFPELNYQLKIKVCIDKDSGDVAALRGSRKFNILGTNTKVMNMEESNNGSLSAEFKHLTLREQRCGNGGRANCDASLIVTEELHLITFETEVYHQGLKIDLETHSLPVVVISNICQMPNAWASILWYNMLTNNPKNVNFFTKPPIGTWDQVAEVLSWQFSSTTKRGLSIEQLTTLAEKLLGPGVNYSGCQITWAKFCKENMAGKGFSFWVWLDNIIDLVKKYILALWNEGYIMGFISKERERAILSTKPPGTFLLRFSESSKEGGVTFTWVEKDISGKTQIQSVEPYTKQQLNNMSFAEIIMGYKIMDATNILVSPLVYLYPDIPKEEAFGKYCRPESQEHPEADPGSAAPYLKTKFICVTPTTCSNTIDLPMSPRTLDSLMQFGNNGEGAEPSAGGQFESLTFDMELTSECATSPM

COc1cc(-c2noc3c2C(=O)c2cccnc2C3=O)cc(OC)c1OCCCOC(=O)CCCCC1SCC2NC(=O)NC21 (stereo not shown) [biotin–ZSW]
biotin pull-down (MDA-MB-231), LC/MS identification and STAT3 Western blot: identified the proteins that bind to biotin–ZSW specifically using LC/MS. We determined that STAT3 was specifically stripped
